Assay results published in patent US20220356163A1, “SMALL MOLECULE INHIBITORS OF Id PROTEINS” (MEMORIAL SLOAN KETTERING CANCER CENTER, priority 2019, published 2022).

Tests used:
MDA-MB-231 = assay: MTT assay, MDA-MB-231; assay type: cell-based; design: scale not given here; conditions: MDA-MB-231, TNBC cell line, 24 hours
Source text: (§1) The 4T1 murine mammary tumor cell line and nine breast cancer cell lines representing the major breast cancer subtypes (ER+, HER2+, and TNBC) including MDA-MB-157, MDA-MB-436, MDA-MB-231, MDA-MB-453, MDA-MB-361, BT-474, SK-BR-3, MCF-7 and T47-D will be grown in RPMI or DMEM (Dulbecco's Modified Eagle Medium) media supplemented with 10% FBS (fetal bovine serum), 1% penicillin-streptomycin and 1% L-Glutamine. Patient derived xenograft cell lines BR7, BR11, and IBT will be established directly from breast cancer bone metastases specimens surgically resected from patients with informed consent. BR7 and BR11 specimens will be obtained from ER positive (HER2 negative and PR negative) metastatic breast cancer patients, while the IBT specimen will be obtained from a metastatic, triple negative breast cancer patient. Fresh tumor tissues will be quickly washed with ice cold PBS and minced into about 1-3 mm pieces in MEM medium (without FBS) using sterile razor blades. […] The cells will be treated with either 100 μM DMSO, AGX51, or a compound of the present technology such as AGX-A. The cell morphology and growth will be monitored daily for 1 week by microscopy for changes in morphology or cell death. […] Absorbance will then measured at 570 nm using a plate reader (Synergy 2, BioTek). […]

ID1 [1] = molecular target: T1, ID1 (Homo sapiens, UniProt P41134); assay: Ubiquitylation assay in HCT116 and U87 cells; assay type: cell-based; conditions: 60 μM AGX51 two hours, then MG132 six hours
T1 sequence (P41134 1-155): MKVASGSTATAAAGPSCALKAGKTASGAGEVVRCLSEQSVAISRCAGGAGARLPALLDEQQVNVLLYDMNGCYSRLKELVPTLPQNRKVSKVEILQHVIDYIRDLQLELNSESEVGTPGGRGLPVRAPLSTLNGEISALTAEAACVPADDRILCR
Description: Ubiquitylation assay. HCT116 cells were transfected with pcDNA3-ID1-Flag and pcDNA3-HA-Ubiquitin using lipofectamine 3000 (ThermoFisher). 36 hours after transfection, cells were treated with 60 μM AGX51 for two hours followed by 20 μM MG132 (EMD Millipore) for an additional six hours. After washing with ice-cold PBS twice, cells were lysed in 100 μL of TBS (50 mM Tris-HCl, pH 8.0, 150 mM NaCl) containing 2% SDS and boiled at 100° C. for 10 minutes. Lysates were diluted with 900 μL of TBS containing 1% NP40 and EDTA free protease inhibitor cocktail (Roche) and were cleared by centrifuge at 15,000 rpm for 15 minutes at 4° C. Immunoprecipitation was performed using 1 mg of cellular lysates with FLAG M2 affinity gel (Sigma, F2426). Ubiquitinylated proteins were analyzed by immunoblot using indicated antibodies.
Id proteins are degraded by the ubiquitin 26S proteasome system. Lasorella et al., Nat Rev Cancer, 14: 77-91 (2014). To determine if this degradation pathway mediated the effects of AGX51 on Id protein levels was then explored. HUVECs are difficult to transfect with expression constructs, so HCT116 cells were utilized for this assay. HCT116 cells were transfected with a construct expressing Flag-ID1 and then treated with 60 μM AGX51 for 2-24 hours (FIG. 3B). […]

BT-474 = assay: MTT assay, BT-474; assay type: cell-based; design: scale not given here; conditions: BT-474, HER-2 +ve cell line, 24 hours
Source text: as §1

Id1 [2] = molecular target: T2, Id1 (Mus musculus, UniProt P20067); assay: Electrophoretic mobility shift assay (EMSA): ability of Id1 to antagonize E47 binding to DNA; assay type: biochemical; conditions: comparison between compounds
T2 construct: in the presence or absence of purified full-length Id1; made in house; host or cells: bacteria (Id1: Rosetta 2 (DE3))
T2 sequence (P20067 1-148 isoform P20067-2): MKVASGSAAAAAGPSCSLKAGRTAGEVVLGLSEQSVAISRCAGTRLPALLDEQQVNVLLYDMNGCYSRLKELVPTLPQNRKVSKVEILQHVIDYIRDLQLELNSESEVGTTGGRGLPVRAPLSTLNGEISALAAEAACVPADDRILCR
Description: Electrophoretic mobility shift assays. To test the activity of compounds identified in the in silico screen, full-length E47 was purified from bacteria and mixed with a P^32 labeled E-box sequence derived from the muscle creatine kinase (MCK) enhancer, BSA, DTT, poly dI-dC, salmon sperm, and HeLa nuclear extract, in the presence or absence of purified full-length Id1. Increasing concentrations of the various test compounds dissolved in DMSO or DMSO alone were added to the reaction mixes for 30 minutes, resolved on a 5% non-denaturing polyacrylamide gel, and autoradiographed. Electrophoretic mobility shift assays (EMSAs) were carried out on whole cell lysates from AGX51-treated cells and the EMSA was performed as described previously (Tournay and Benezra, Mol Cell Biol, 16: 2418-30 (1996)).
Pesce and Benezra, Mol. Cell. Biol., 13, 7874-7880 (1993). An in silico screen of 2,234,000 compounds for crevice binding was performed, yielding 3,000 hits that were pared for drug-like properties. 364 candidates emerged and were tested for their capacity to inhibit the ability of Id1 to antagonize E47 binding to DNA by EMSAs as previously described (Benezra, 1994). […] This anti-Id1 activity was most likely due to the perturbation of the Id1-E47 interaction but other explanations, such as the binding of an Id1-E47 complex to DNA in the presence of compound, are possible. […]

Structure (SMILES): CCC(=O)N(CCC(c1ccc2c(c1)OCO2)c1ccccc1OC)Cc1ccccc1 (racemic) [AGX51, N-(3-(benzo[d][1,3]dioxol-5-yl)-3-(2-methoxyphenyl)propyl)-N-benzylpropionamide]
- percentage at 60 μM (IC50 NA) (MDA-MB-231): NA (60 μM = 70%)
- ID1 polyubiquitylation (ID1 [1]): further increased ID1 polyubiquitylation
- percentage at 60 μM (IC50 NA) (BT-474): NA (60 μM = 53%)
- relative potency in EMSA (Id1 [2]): more potent than B
